The target in the test is T1, Plk1 (Homo sapiens, UniProt P53350).
T1 construct: in the presence of 15 nM Plk1 (A20-K338)
Kind of test: Plk1 inhibition assay (radioactive-phosphate incorporation). In kind it is biochemical. Conditions: Ki(app). The method, then: The compounds of the present invention are evaluated as inhibitors of human PLK kinase using the following assays.
Compounds were screened for their ability to inhibit Plk1 using a radioactive-phosphate incorporation assay. Assays were carried out in a mixture of 25 mM HEPES (pH 7.5), 10 mM MgCl2, and 1 mM DTT. Final substrate concentrations were 50 μM [γ-33P]ATP (136 mCi 33P ATP/mmol ATP, Amersham Pharmacia Biotech/Sigma Chemicals) and 10 μM peptide (SAM68 protein Δ332-443). Assays were carried out at 25° C. in the presence of 15 nM Plk1 (A20-K338). An assay stock buffer solution was prepared containing all of the reagents listed above, with the exception of ATP and the test compound of interest. 30 μL of the stock solution was placed in a 96 well plate followed by addition of 2 μL of DMSO stock containing serial dilutions of the test compound (typically starting from a final concentration of 10 μM with 2-fold serial dilutions) in duplicate (final DMSO concentration 5%). The plate was pre-incubated for 10 minutes at 25° C. and the reaction initiated by addition of 8 μL [γ-33P]ATP (final concentration 50 μM). […]
After removing mean background values for all of the data points, Ki(app) data were calculated from non-linear regression analysis of the initial rate data using the Prism software package (GraphPad Prism version 3.0cx for Macintosh, GraphPad Software, San Diego Calif., USA). […]

pKi: −log10 of the molar value.

T1 sequence (P53350 20-338): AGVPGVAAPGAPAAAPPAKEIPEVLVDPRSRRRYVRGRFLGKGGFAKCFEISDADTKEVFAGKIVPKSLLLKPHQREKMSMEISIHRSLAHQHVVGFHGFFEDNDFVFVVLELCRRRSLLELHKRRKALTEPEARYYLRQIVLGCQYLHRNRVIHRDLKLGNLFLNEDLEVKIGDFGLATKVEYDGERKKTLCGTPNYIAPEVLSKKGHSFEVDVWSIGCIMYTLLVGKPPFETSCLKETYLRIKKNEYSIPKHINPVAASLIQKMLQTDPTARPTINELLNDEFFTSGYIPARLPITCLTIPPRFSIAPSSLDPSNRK

As usually defined, the pKi is the negative decadic logarithm of the Ki, by convention in mol/L. For the compound `CC(Oc1cc(-c2cc(-c3cccc(Cl)c3)cnc2N)sc1C(N)=O)c1ccccc1Cl` (stereo not shown) [I-3, 5-[2-Amino-5-(3-chloro-phenyl)-pyridin-3-yl]-3-[1-(2-chloro-phenyl)-ethoxy]-thiophene-2-carboxylic acid amide], the negative-log Ki (pKi) was greater than 8.00.

Values taken from patent US8853244B2, “Thiophene-carboxamides useful as inhibitors of protein kinases” (Vertex Pharmaceuticals Incorporated, priority 2006, dated 2014).
